In publication PMC7657664 (Harmful algae, 2020):
Read-outs that look alike come from different tables or passages of the source.

Legend:
[1] = target: T1, Torpedo-nAChR of embryonic muscle type (α1)2β1γδ (Torpedo marmorata, UniProt P02711+Q6S3H8+Q6S3H9); assay: microplate receptor-binding assay, competition with biotin-α-bungarotoxin
[2] = target: T1, Torpedo-nAChR of embryonic muscle type (α1)2β1γδ; assay: as above; remark: listed apart in the source

Compound	IC50 [1] [µM]	IC50 [2] [nM]
28-O-palmitoyl ester of pinnatoxin-G [Palmitoyl-PnTX-G]	13.1	–
C=CC1=C[C@@H]2[C@@H]3O[C@]4(C[C@H]5CCC[C@@]6(CC[C@@]7(O[C@@H](CC[C@@]7(C)O)CC(=C)CCCC7=NC[C@H](C)[C@@H](C)C[C@@]72CC1)O6)O5)C[C@@H](C)[C@@H](O)[C@H]3O4 [PnTX-G, pinnatoxin-G]	–	18.6
